From patent US20240148821A1, “PHARMACEUTICAL USE OF CYCLIC PEPTIDE COMPOUND” (CHUGAI SEIYAKU KABUSHIKI KAISHA, priority 2021, published 2024)
Bridge positions count the residues as written; N and C are the ends. Square brackets hold non-standard residues; d marks the D form. Peptide text beside a SMILES is read from it. * marks the point of attachment. hPhe(3-Cl-4-CF3) = N[C@@H](CCc1ccc(C(F)(F)F)c(Cl)c1)C(=O)O; NMeAbu(4,4,4-F3) = CN[C@@H](CC(F)(F)F)C(=O)O; NMePhe(4-Me) = CN[C@@H](Cc1ccc(C)cc1)C(=O)O; NMePhe(4-F) = CN[C@@H](Cc1ccc(F)cc1)C(=O)O; NMeNva(5,5-F2) = CN[C@@H](CCC(F)F)C(=O)O; NMeCha = CN[C@@H](CC1CCCCC1)C(=O)O; NMeGly(cPr) = CN[C@H](C(=O)O)C1CC1; NMeAhp(2) = CCCCC[C@H](NC)C(=O)O; NMeChg = CN[C@H](C(=O)O)C1CCCCC1; NMeI = CC[C@H](C)[C@H](NC)C(=O)O; NMeD = CN[C@@H](CC(=O)O)C(=O)O; NMeL = CN[C@@H](CC(C)C)C(=O)O; hLeu = CC(C)CC[C@H](N)C(=O)O; NMeV = CN[C@H](C(=O)O)C(C)C; d(β3hA) = C[C@@H](N)CC(=O)O; NMeAbu = CC[C@H](NC)C(=O)O; NMeS = CN[C@@H](CO)C(=O)O; Ac6c = NC1(C(=O)O)CCCCC1; Morpholide = C1CN(*)CCO1; NMeA = CN[C@@H](C)C(=O)O; Nphe = O=C(O)CNCc1ccccc1; Piperidide = C1CCN(*)CC1; Pyrrolidide = C1CCN(*)C1; dNMeA = CN[C@H](C)C(=O)O; Ac5c = NC1(C(=O)O)CCCC1; Aze = O=C(O)[C@@H]1CCN1; Ac3c = NC1(C(=O)O)CC1; Cyclopropyl = C1CC1*; Sar = CNCC(=O)O

Assays:
[1] = target: protein-protein interaction between Kras and SOS1 (biotin-tagged human Kras loaded with GDP, His-tagged human SOS1) (Homo sapiens (Human), UniProt P01116, G12D); experiment: Protein-protein interaction inhibition between Kras and SOS1 (KrasG12D-SOS PPI) using AlphaScreen; type: biochemical; conditions: AlphaScreen; biotin-tagged human Kras loaded with GDP, His-tagged human SOS1; read-out: KRAS G12D-SOS PPI IC50;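 also: kras produced in E. coli, Ni-coupled donor beads and streptavidin acceptor beads, excitation 680 nm with emission detected at 520–620 nm via singlet oxygen transfer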
[2] = tested on: Human pancreatic cancer cell line AsPC-1 (G12D mutation Kras); experiment: AsPC-1 cell growth inhibition (AsPC-1 CGI); type: cell-based; conditions: read-out: AsPC-1 cell growth inhibition, 50% growth inhibitory concentration (IC50 value); 96 hours, CellTiter-Glo, values classified in ranges
Description: Test compounds were serially dilated with dimethyl sulfoxide, and 200 nL was then dispensed to a U-bottom 96-well plate using Labcyte Echo. […] The cell suspension was dispensed to a. plate containing a test compound at 100 μL per well and incubated at 37° C. in a 5% carbon dioxide gas incubator. 96 hours later, 80 μL of CellTiter-Glo (Promega) was added to each well and fluorescence was measured.

Row | Structure (SMILES) | IC50 [1] [nM] | IC50 [2] [nM]
1 | CC[C@H](C)[C@@H]1NC(=O)[C@H](CC(C)C)N(C)C(=O)C[C@@H](C(=O)N2CCCCC2)N(C)C(=O)[C@H](C(C)C)N(C)C(=O)C2(CCCC2)NC(=O)[C@@H]2CCCN2C(=O)[C@H](CCc2ccc(C(F)(F)F)c(Cl)c2)NC(=O)CN(C)C(=O)[C@H](CC2CCCCC2)N(C)C(=O)[C@@H]2CCN2C(=O)[C@H](CC2CCCCC2)N(C)C1=O [Compound 1574] ([NMeL]I[NMeCha][Aze][NMeCha][Sar][hPhe(3-Cl-4-CF3)]P[Ac5c][NMeV][NMeD]-Piperidide; lactam N-11) | 35 | > 500
2 | CC[C@H](C)[C@@H]1NC(=O)[C@H](CC(C)C)N(C)C(=O)C[C@@H](C(=O)N2CCCC2)N(C)C(=O)[C@H]([C@@H](C)CC)N(C)C(=O)C2(CCCC2)NC(=O)[C@@H]2CCCN2C(=O)[C@H](CCc2ccc(C(F)(F)F)c(Cl)c2)NC(=O)CN(C)C(=O)[C@H](Cc2ccc(C)cc2)N(C)C(=O)[C@@H]2CCN2C(=O)[C@H](C)N(C)C1=O [Compound 1645] ([NMeL]I[NMeA][Aze][NMePhe(4-Me)][Sar][hPhe(3-Cl-4-CF3)]P[Ac5c][NMeI][NMeD]-Pyrrolidide; lactam N-11) | 1 | ≤ 20
3 | CC[C@H](C)[C@@H]1NC(=O)[C@H](CC(C)C)N(C)C(=O)C[C@@H](C(=O)N2CCCCC2)N(C)C(=O)[C@H](CCC(F)F)N(C)C(=O)C2(CCCC2)NC(=O)[C@@H]2CCCN2C(=O)[C@H](CCc2ccc(C(F)(F)F)c(Cl)c2)NC(=O)CN(C)C(=O)[C@H](CC2CCCCC2)N(C)C(=O)[C@@H]2CCN2C(=O)[C@H](C)N(C)C1=O [Compound 1660] ([NMeL]I[NMeA][Aze][NMeCha][Sar][hPhe(3-Cl-4-CF3)]P[Ac5c][NMeNva(5,5-F2)][NMeD]-Piperidide; lactam N-11) | 16 | > 500
4 | CC[C@H](C)[C@@H]1NC(=O)[C@H](CC(C)C)N(C)C(=O)C[C@@H](C)NC(=O)[C@H]([C@@H](C)CC)N(C)C(=O)C2(CCCC2)NC(=O)[C@@H]2CCCN2C(=O)[C@H](CCc2ccc(C(F)(F)F)c(Cl)c2)NC(=O)CN(C)C(=O)[C@H](Cc2ccc(C)cc2)N(C)C(=O)[C@@H]2CCN2C(=O)[C@H](C)N(C)C1=O [Compound 1661] (cyclo([Ac5c][NMeI][d(β3hA)][NMeL]I[NMeA][Aze][NMePhe(4-Me)][Sar][hPhe(3-Cl-4-CF3)]P)) | 2.7 | ≤ 20
5 | CC[C@H](C)[C@@H]1NC(=O)[C@H](C)N(C)C(=O)C[C@@H](C(=O)N2CCOCC2)N(C)C(=O)[C@H](C(C)C)N(C)C(=O)C2(CCCC2)NC(=O)[C@@H]2CCCN2C(=O)[C@H](CCc2ccc(C(F)(F)F)c(Cl)c2)NC(=O)[C@@H](C)N(C)C(=O)[C@H](CC2CCCCC2)N(C)C(=O)[C@@H]2CCN2C(=O)[C@H](C)N(C)C1=O [Compound 1664] ([NMeA]I[NMeA][Aze][NMeCha][dNMeA][hPhe(3-Cl-4-CF3)]P[Ac5c][NMeV][NMeD]-Morpholide; lactam N-11) | 8.8 | > 500
6 | CC[C@H](C)[C@@H]1NC(=O)[C@H](CC(C)C)N(C)C(=O)C[C@@H](C(=O)N2CCCCC2)N(C)C(=O)[C@H](C(C)C)N(C)C(=O)C2(CCCC2)NC(=O)[C@@H]2CCCN2C(=O)[C@H](CCc2ccc(C(F)(F)F)c(Cl)c2)NC(=O)CN(C)C(=O)[C@H](CC(F)(F)F)N(C)C(=O)[C@@H]2CCN2C(=O)[C@H](C)N(C)C1=O [Compound 1665] ([NMeL]I[NMeA][Aze][NMeAbu(4,4,4-F3)][Sar][hPhe(3-Cl-4-CF3)]P[Ac5c][NMeV][NMeD]-Piperidide; lactam N-11) | 19 | > 500
7 | CC[C@H](C)[C@@H]1NC(=O)[C@H](CC(C)C)N(C)C(=O)C[C@@H](C(=O)N2CCCCC2)N(C)C(=O)[C@H](C(C)C)N(C)C(=O)C2(CCCC2)NC(=O)[C@@H]2CCCN2C(=O)[C@H](CCc2ccc(C(F)(F)F)c(Cl)c2)NC(=O)CN(C)C(=O)[C@H](C)N(C)C(=O)[C@@H]2CCN2C(=O)[C@H](C)N(C)C1=O [Compound 1674] ([NMeL]I[NMeA][Aze][NMeA][Sar][hPhe(3-Cl-4-CF3)]P[Ac5c][NMeV][NMeD]-Piperidide; lactam N-11) | 58 | > 500
8 | CC[C@H](C)[C@@H]1NC(=O)[C@H](C)N(C)C(=O)C[C@@H](C(=O)N2CCCCC2)N(C)C(=O)[C@H](C(C)C)N(C)C(=O)C2(CCCC2)NC(=O)CN(Cc2ccccc2)C(=O)[C@H](CCc2ccc(C(F)(F)F)c(Cl)c2)NC(=O)CN(C)C(=O)[C@H](CC2CCCCC2)N(C)C(=O)CN(C)C(=O)CN(C)C1=O [Compound 1676] ([NMeA]I[Sar][Sar][NMeCha][Sar][hPhe(3-Cl-4-CF3)][Nphe][Ac5c][NMeV][NMeD]-Piperidide; lactam N-11) | 1.6 | > 500
9 | CC[C@H](C)[C@@H]1NC(=O)[C@H](CC(C)C)N(C)C(=O)C[C@@H](C(=O)N2CCCCC2)N(C)C(=O)[C@H](C(C)C)N(C)C(=O)C2(CCCC2)NC(=O)[C@@H]2CCCN2C(=O)[C@H](CCc2ccc(C(F)(F)F)c(Cl)c2)NC(=O)CN(C)C(=O)[C@H](C2CC2)N(C)C(=O)[C@@H]2CCN2C(=O)[C@H](C)N(C)C1=O [Compound 1677] ([NMeL]I[NMeA][Aze][NMeGly(cPr)][Sar][hPhe(3-Cl-4-CF3)]P[Ac5c][NMeV][NMeD]-Piperidide; lactam N-11) | 8.6 | > 500
10 | CC[C@H](C)[C@@H]1NC(=O)[C@H](CC(C)C)N(C)C(=O)C[C@@H](C(=O)N2CCCCC2)N(C)C(=O)[C@H](CC)N(C)C(=O)C2(CCCC2)NC(=O)[C@@H]2CCCN2C(=O)[C@H](CCc2ccc(C(F)(F)F)c(Cl)c2)NC(=O)CN(C)C(=O)[C@H](CC2CCCCC2)N(C)C(=O)[C@@H]2CCN2C(=O)[C@H](C)N(C)C1=O [Compound 1678] ([NMeL]I[NMeA][Aze][NMeCha][Sar][hPhe(3-Cl-4-CF3)]P[Ac5c][NMeAbu][NMeD]-Piperidide; lactam N-11) | 26 | > 500
11 | CC[C@H](C)[C@@H]1NC(=O)[C@H](CC(C)C)N(C)C(=O)C[C@@H](C(=O)N2CCCCC2)N(C)C(=O)[C@H](COC2CC2)N(C)C(=O)C2(CCCC2)NC(=O)[C@@H]2CCCN2C(=O)[C@H](CCc2ccc(C(F)(F)F)c(Cl)c2)NC(=O)CN(C)C(=O)[C@H](CC2CCCCC2)N(C)C(=O)[C@@H]2CCN2C(=O)[C@H](C)N(C)C1=O [Compound 1690] ([NMeL]I[NMeA][Aze][NMeCha][Sar][hPhe(3-Cl-4-CF3)]P[Ac5c][NMeS](Cyclopropyl)[NMeD]-Piperidide; lactam N-11) | 97 | > 500
12 | CC[C@H](C)[C@@H]1NC(=O)[C@H](CC(C)C)N(C)C(=O)C[C@@H](C(=O)N2CCCCC2)N(C)C(=O)[C@H](C(C)C)N(C)C(=O)C2(CC2)NC(=O)[C@@H]2CCCN2C(=O)[C@H](CCc2ccc(C(F)(F)F)c(Cl)c2)NC(=O)CN(C)C(=O)[C@H](CC2CCCCC2)N(C)C(=O)[C@@H]2CCN2C(=O)[C@H](C)N(C)C1=O [Compound 1695] ([NMeL]I[NMeA][Aze][NMeCha][Sar][hPhe(3-Cl-4-CF3)]P[Ac3c][NMeV][NMeD]-Piperidide; lactam N-11) | 8 | > 500
13 | CC(C)CC[C@@H]1NC(=O)[C@H](CC(C)C)N(C)C(=O)C[C@@H](C(=O)N2CCCCC2)N(C)C(=O)[C@H](C(C)C)N(C)C(=O)C2(CCCC2)NC(=O)[C@@H]2CCCN2C(=O)[C@H](CCc2ccc(C(F)(F)F)c(Cl)c2)NC(=O)CN(C)C(=O)[C@H](CC2CCCCC2)N(C)C(=O)[C@@H]2CCN2C(=O)[C@H](C)N(C)C1=O [Compound 1697] ([NMeL][hLeu][NMeA][Aze][NMeCha][Sar][hPhe(3-Cl-4-CF3)]P[Ac5c][NMeV][NMeD]-Piperidide; lactam N-11) | 110 | > 500
14 | CC[C@H](C)[C@@H]1NC(=O)[C@H](C)N(C)C(=O)C[C@@H](C)NC(=O)[C@H](C(C)C)N(C)C(=O)C2(CCCC2)NC(=O)[C@@H]2CCCN2C(=O)[C@H](CCc2ccc(C(F)(F)F)c(Cl)c2)NC(=O)[C@@H](C)N(C)C(=O)[C@H](Cc2ccc(F)cc2)N(C)C(=O)[C@@H]2CCN2C(=O)[C@H](C)N(C)C1=O [Compound 1702] (cyclo([Ac5c][NMeV][d(β3hA)][NMeA]I[NMeA][Aze][NMePhe(4-F)][dNMeA][hPhe(3-Cl-4-CF3)]P)) | 31 | > 500
15 | CC[C@H](C)[C@@H]1NC(=O)[C@H](CC(C)C)N(C)C(=O)C[C@@H](C)NC(=O)[C@H](C2CCCCC2)N(C)C(=O)C2(CCCC2)NC(=O)[C@@H]2CCCN2C(=O)[C@H](CCc2ccc(C(F)(F)F)c(Cl)c2)NC(=O)CN(C)C(=O)[C@H](CC2CCCCC2)N(C)C(=O)[C@@H]2CCN2C(=O)[C@H](C)N(C)C1=O [Compound 1706] (cyclo([Ac5c][NMeChg][d(β3hA)][NMeL]I[NMeA][Aze][NMeCha][Sar][hPhe(3-Cl-4-CF3)]P)) | 140 | > 500
16 | CCCCC[C@H]1C(=O)N(C)[C@H](C(=O)N2CCCCC2)CC(=O)N(C)[C@@H](CC(C)C)C(=O)N[C@@H]([C@@H](C)CC)C(=O)N(C)[C@@H](C)C(=O)N2CC[C@H]2C(=O)N(C)[C@@H](CC2CCCCC2)C(=O)N(C)CC(=O)N[C@@H](CCc2ccc(C(F)(F)F)c(Cl)c2)C(=O)N2CCC[C@H]2C(=O)NC2(CCCC2)C(=O)N1C [Compound 1707] ([NMeL]I[NMeA][Aze][NMeCha][Sar][hPhe(3-Cl-4-CF3)]P[Ac5c][NMeAhp(2)][NMeD]-Piperidide; lactam N-11) | 180 | > 500
17 | CC[C@H](C)[C@@H]1NC(=O)[C@H](CC(C)C)N(C)C(=O)C[C@@H](C(=O)N2CCCCC2)N(C)C(=O)[C@H](C(C)C)N(C)C(=O)C2(CCCCC2)NC(=O)[C@@H]2CCCN2C(=O)[C@H](CCc2ccc(C(F)(F)F)c(Cl)c2)NC(=O)CN(C)C(=O)[C@H](CC2CCCCC2)N(C)C(=O)[C@@H]2CCN2C(=O)[C@H](C)N(C)C1=O [Compound 1708] ([NMeL]I[NMeA][Aze][NMeCha][Sar][hPhe(3-Cl-4-CF3)]P[Ac6c][NMeV][NMeD]-Piperidide; lactam N-11) | 10 | > 500
